Values joined by “and” are separate entries in the source; they are usually repeats but may differ in a detail not shown here. Equal entries are not always repeated.
Legend:
[1] = Solubility study of API in liquid, semi-solid and binary excipients (visual, solvent aliquots, Parts 1 and 2); details: for Aliquot where API first fully dissolved, Part 2 Study: aliquots 1/2/3/4 = 0.8/0.4/0.25/0.1 % w/v
Description: The aim of this study was to assess the solubility of the N-(2-(tert-butyl)-1-((4,4-difluorocyclohexyl)methyl)-1H-benzimidazol-5-yl)ethanesulfonamide in a number of different excipients.
The binary semi-solid composition mixtures were manufactured as follows: • I. The semi solids were dispensed then molten overnight at ˜60° C. […] (PEG 6000) • II. PEG 400 was added the next day, as required, (when all the semi-solids were molten) • III. Binary solvent mixture containing PEG 6000 were mixed at ˜80° C. and the remaining binaries were mixed at ˜70° C., until homogenous
Where required, the semi solids were melted prior to use (overnight). The solubility of the API in the selected solvents was assessed in two parts (Part 1 and Part 2 Studies) as follows: • i. Solvent aliquots were added to pre-dispensed API while mixing using a magnetic flea and stirrer. • ii. The temperature of the solvents was maintained as follows: • a. Single-component liquids: Room temperature (ambient) • b. TPGS and PEG 1500: ˜60° C. • c. PEG 6000 and binary solvent mixtures containing PEG 6000: ˜80° C. • iii. Solvents were mixed for a maximum of 1 hour between each aliquot addition. • iv. The solvents were carefully inspected visually between aliquots. • v. The addition of solvent was stopped when: • a. After Aliquot 2 addition if API fully dissolve—(even if API dissolve after Aliquot 1, Aliquot 2 was added) • b. After adding all the solvent aliquots in Table 28 • vi.

[2] = tested on: endocannabinoid system; details: in vivo; cited from earlier work

CCS(=O)(=O)Nc1ccc2c(c1)nc(C(C)(C)C)n2CC1CCC(F)(F)CC1 [Compound I, N-(2-(tert-butyl)-1-((4,4-difluorocyclohexyl)methyl)-1H-benzimidazol-5-yl)ethanesulfonamide]
Aliquot where API first fully dissolved, Part 1 Study ([1]; in 1,2-propane diol, ambient, DND = did not dissolve even after 3 aliquots (0.0125 % w/v)): DND*
Aliquot where API first fully dissolved, Part 1 Study ([1]; in Corn oil, ambient, DND = did not dissolve even after 3 aliquots (0.0125 % w/v)): DND*
Aliquot where API first fully dissolved, Part 2 Study ([1]; in Diethylene glycol monoethyl ether, ambient): 2nd
Aliquot where API first fully dissolved, Part 1 Study ([1]; in Diethylene glycol monoethyl ether, ambient, aliquots 1/2/3 = 0.05/0.025/0.0125 % w/v): 1st
Solubility range (% w/v) Above/Below ([1]; in Diethylene glycol monoethyl ether, ambient, listed as API): > 0.40% w/v and < 0.80% w/v
Aliquot where API first fully dissolved, Part 1 Study ([1]; in Glycerol, ambient, DND = did not dissolve even after 3 aliquots (0.0125 % w/v)): DND*
Aliquot where API first fully dissolved, Part 1 Study ([1]; in Kolliphor EL, ambient, DND = did not dissolve even after 3 aliquots (0.0125 % w/v)): DND*
Aliquot where API first fully dissolved, Part 1 Study ([1]; in Kolliphor ELP, ambient, DND = did not dissolve even after 3 aliquots (0.0125 % w/v)): DND*
Aliquot where API first fully dissolved, Part 1 Study ([1]; in Labrafil M 2125 CS, ambient, DND = did not dissolve even after 3 aliquots (0.0125 % w/v)): DND*
Observation of Part 2 solution on standing ([1]; in Labrasol ALF, after 4 aliquots (0.1 % w/v), 5 days later at ambient): Precipitate
Aliquot where API first fully dissolved, Part 2 Study ([1]; in Labrasol ALF, ambient): 3rd
Solubility range (% w/v) Above/Below ([1]; in Labrasol ALF, ambient, listed as API): > 0.025% w/v and < 0.05% w/v
Aliquot where API first fully dissolved, Part 1 Study ([1]; in Labrasol ALF, ambient, only after stirring overnight, aliquots 1/2/3 = 0.05/0.025/0.0125 % w/v): 2nd^#
Aliquot where API first fully dissolved, Part 1 Study ([1]; in Miglyol 812 (Medium-chain Triglycerides), ambient, DND = did not dissolve even after 3 aliquots (0.0125 % w/v)): DND*
Aliquot where API first fully dissolved, Part 2 Study ([1]; in Octanoic acid, ambient): 2nd
Aliquot where API first fully dissolved, Part 1 Study ([1]; in Octanoic acid, ambient, aliquots 1/2/3 = 0.05/0.025/0.0125 % w/v): 2nd
Solubility range (% w/v) Above/Below ([1]; in Octanoic acid, ambient, listed as API): > 0.40% w/v and < 0.80% w/v
Aliquot where API first fully dissolved, Part 1 Study ([1]; in Oleic acid, ambient, DND = did not dissolve even after 3 aliquots (0.0125 % w/v)): DND*
Aliquot where API first fully dissolved, Part 2 Study ([1]; in PEG 400, ambient): 4th
Aliquot where API first fully dissolved, Part 1 Study ([1]; in PEG 400, ambient, aliquots 1/2/3 = 0.05/0.025/0.0125 % w/v): 2nd
Aliquot where API first fully dissolved, Part 2 Study ([1]; in PEG400:PEG 1500 (1:1)): 1st
Aliquot where API first fully dissolved, Part 1 Study ([1]; in PEG400:PEG 1500 (1:1), aliquots 1/2/3 = 0.05/0.025/0.0125 % w/v): 1st
Solubility range (% w/v) Above/Below ([1]; in PEG400:PEG 1500 (1:1), upper limit not known): > 0.80% w/v
Aliquot where API first fully dissolved, Part 2 Study ([1]; in PEG400:PEG 1500 (1:9)): 1st
Aliquot where API first fully dissolved, Part 1 Study ([1]; in PEG400:PEG 1500 (1:9), aliquots 1/2/3 = 0.05/0.025/0.0125 % w/v): 1st
Solubility range (% w/v) Above/Below ([1]; in PEG400:PEG 1500 (1:9), upper limit not known): > 0.80% w/v
Aliquot where API first fully dissolved, Part 2 Study ([1]; in PEG400:PEG 1500 (9:1)): 1st
Aliquot where API first fully dissolved, Part 1 Study ([1]; in PEG400:PEG 1500 (9:1), aliquots 1/2/3 = 0.05/0.025/0.0125 % w/v): 1st
Solubility range (% w/v) Above/Below ([1]; in PEG400:PEG 1500 (9:1), upper limit not known): > 0.80% w/v
Aliquot where API first fully dissolved, Part 2 Study ([1]; in PEG1500:PEG6000 (1:1), ~80° C.): 1st
Aliquot where API first fully dissolved, Part 1 Study ([1]; in PEG1500:PEG6000 (1:1), ~80° C., aliquots 1/2/3 = 0.05/0.025/0.0125 % w/v): 1st
Solubility range (% w/v) Above/Below ([1]; in PEG1500:PEG6000 (1:1), ~80° C., upper limit not known): > 0.80% w/v
Aliquot where API first fully dissolved, Part 2 Study ([1]; in PEG1500:PEG6000 (1:9), ~80° C.): 1st
Aliquot where API first fully dissolved, Part 1 Study ([1]; in PEG1500:PEG6000 (1:9), ~80° C., aliquots 1/2/3 = 0.05/0.025/0.0125 % w/v): 3rd
Solubility range (% w/v) Above/Below ([1]; in PEG1500:PEG6000 (1:9), ~80° C., upper limit not known): > 0.80% w/v
Aliquot where API first fully dissolved, Part 2 Study ([1]; in PEG1500:PEG6000 (9:1), ~80° C.): 1st
Aliquot where API first fully dissolved, Part 1 Study ([1]; in PEG1500:PEG6000 (9:1), ~80° C., aliquots 1/2/3 = 0.05/0.025/0.0125 % w/v): 1st
Solubility range (% w/v) Above/Below ([1]; in PEG1500:PEG6000 (9:1), ~80° C., upper limit not known): > 0.80% w/v
Aliquot where API first fully dissolved, Part 2 Study ([1]; in PEG1500:TPGS (1:1)): 1st
Aliquot where API first fully dissolved, Part 1 Study ([1]; in PEG1500:TPGS (1:1), aliquots 1/2/3 = 0.05/0.025/0.0125 % w/v): 1st
Solubility range (% w/v) Above/Below ([1]; in PEG1500:TPGS (1:1), upper limit not known): > 0.80% w/v
Aliquot where API first fully dissolved, Part 2 Study ([1]; in PEG1500:TPGS (1:9)): 2nd
Aliquot where API first fully dissolved, Part 1 Study ([1]; in PEG1500:TPGS (1:9), aliquots 1/2/3 = 0.05/0.025/0.0125 % w/v): 3rd
Solubility range (% w/v) Above/Below ([1]; in PEG1500:TPGS (1:9), listed as API): > 0.40% w/v and < 0.80% w/v
Aliquot where API first fully dissolved, Part 2 Study ([1]; in PEG1500:TPGS (9:1)): 1st
Aliquot where API first fully dissolved, Part 1 Study ([1]; in PEG1500:TPGS (9:1), aliquots 1/2/3 = 0.05/0.025/0.0125 % w/v): 1st
Solubility range (% w/v) Above/Below ([1]; in PEG1500:TPGS (9:1), upper limit not known): > 0.80% w/v
Aliquot where API first fully dissolved, Part 2 Study ([1]; in Polysorbate 20, ambient, only after Overnight Hold): 4th Only
Aliquot where API first fully dissolved, Part 1 Study ([1]; in Polysorbate 20, ambient, only after stirring overnight, aliquots 1/2/3 = 0.05/0.025/0.0125 % w/v): 3rd^#
Solubility range (% w/v) Above/Below ([1]; in Polysorbate 20, ambient, upper limit not known): > 0.10% w/v
Aliquot where API first fully dissolved, Part 2 Study ([1]; in Polysorbate 80, ambient, only after Overnight Hold): 4th Only
Aliquot where API first fully dissolved, Part 1 Study ([1]; in Polysorbate 80, ambient, only after stirring overnight, aliquots 1/2/3 = 0.05/0.025/0.0125 % w/v): 3rd^#
Solubility range (% w/v) Above/Below ([1]; in Polysorbate 80, ambient, upper limit not known): > 0.10% w/v
Aliquot where API first fully dissolved, Part 2 Study ([1]; in Propylene glycol dilaurate, ambient, only after Overnight Hold): 4th Only
Aliquot where API first fully dissolved, Part 1 Study ([1]; in Propylene glycol dilaurate, ambient, only after stirring overnight, aliquots 1/2/3 = 0.05/0.025/0.0125 % w/v): 3rd^#
Solubility range (% w/v) Above/Below ([1]; in Propylene glycol dilaurate, ambient, upper limit not known): > 0.10% w/v
Aliquot where API first fully dissolved, Part 2 Study ([1]; in Propylene glycol monocaprylate, ambient): 2nd
Aliquot where API first fully dissolved, Part 1 Study ([1]; in Propylene glycol monocaprylate, ambient, aliquots 1/2/3 = 0.05/0.025/0.0125 % w/v): 2nd
Solubility range (% w/v) Above/Below ([1]; in Propylene glycol monocaprylate, ambient, listed as API): > 0.40% w/v and < 0.80% w/v
Aliquot where API first fully dissolved, Part 1 Study ([1]; in Soybean oil, ambient, DND = did not dissolve even after 3 aliquots (0.0125 % w/v)): DND*
Aliquot where API first fully dissolved, Part 2 Study ([1]; in molten Capmul 808G): 3rd
Aliquot where API first fully dissolved, Part 1 Study ([1]; in molten Capmul 808G, aliquots 1/2/3 = 0.05/0.025/0.0125 % w/v): 1st
Solubility range (% w/v) Above/Below ([1]; in molten Capmul 808G, listed as API): > 0.25% w/v and < 0.40% w/v
Solubility range (% w/v) Above/Below ([1]; in molten Cremophor RH40, listed as API): > 0.40% w/v and < 0.80% w/v
Aliquot where API first fully dissolved, Part 1 Study ([1]; in molten Cremophor RH40, only after Overnight Hold, aliquots 1/2/3 = 0.05/0.025/0.0125 % w/v): 2nd Only
Aliquot where API first fully dissolved, Part 2 Study ([1]; in molten Cremophor RH40, only after stirring overnight): 2nd^#
Aliquot where API first fully dissolved, Part 2 Study ([1]; in molten Gelucire 48/16): 4th
Aliquot where API first fully dissolved, Part 1 Study ([1]; in molten Gelucire 48/16, aliquots 1/2/3 = 0.05/0.025/0.0125 % w/v): 1st
Aliquot where API first fully dissolved, Part 2 Study ([1]; in molten Gelucire 50/13): 3rd
Aliquot where API first fully dissolved, Part 1 Study ([1]; in molten Gelucire 50/13, aliquots 1/2/3 = 0.05/0.025/0.0125 % w/v): 2nd
Solubility range (% w/v) Above/Below ([1]; in molten Gelucire 50/13, listed as API): > 0.25% w/v and < 0.40% w/v
Aliquot where API first fully dissolved, Part 2 Study ([1]; in molten Glyceryl monooleate): 2nd
Aliquot where API first fully dissolved, Part 1 Study ([1]; in molten Glyceryl monooleate, aliquots 1/2/3 = 0.05/0.025/0.0125 % w/v): 2nd
Solubility range (% w/v) Above/Below ([1]; in molten Glyceryl monooleate, listed as API): > 0.40% w/v and < 0.80% w/v
Aliquot where API first fully dissolved, Part 1 Study ([1]; in molten Glyceryl palmitostearate, DND = Did not dissolve (3 aliquots, 0.0125 % w/v)): DND*
Aliquot where API first fully dissolved, Part 2 Study ([1]; in molten Kolliphor HS15): 2nd
Aliquot where API first fully dissolved, Part 1 Study ([1]; in molten Kolliphor HS15, aliquots 1/2/3 = 0.05/0.025/0.0125 % w/v): 1st
Solubility range (% w/v) Above/Below ([1]; in molten Kolliphor HS15, listed as API): > 0.40% w/v and < 0.80% w/v
Aliquot where API first fully dissolved, Part 2 Study ([1]; in molten PEG 4000): 2nd
Aliquot where API first fully dissolved, Part 1 Study ([1]; in molten PEG 4000, aliquots 1/2/3 = 0.05/0.025/0.0125 % w/v): 1st
Solubility range (% w/v) Above/Below ([1]; in molten PEG 4000, listed as API): > 0.40% w/v and < 0.80% w/v
Aliquot where API first fully dissolved, Part 2 Study ([1]; in molten PEG 6000, ~80° C.): 1st
Aliquot where API first fully dissolved, Part 1 Study ([1]; in molten PEG 6000, ~80° C., aliquots 1/2/3 = 0.05/0.025/0.0125 % w/v): 2nd
Solubility range (% w/v) Above/Below ([1]; in molten PEG 6000, ~80° C., upper limit not known): > 0.80% w/v
Aliquot where API first fully dissolved, Part 1 Study ([1]; in molten Sorbitan palmitate, DND = Did not dissolve (3 aliquots, 0.0125 % w/v)): DND*
Appetite stimulation [2]: stimulate appetite in a dose-dependent manner
CNS-psychoactive effects [2]: does not cause CNS-psychoactive effects

Reference: patent publication US20240024290A1, “PHARMACEUTICAL COMPOSITIONS COMPRISING CANNABINOID AGONIST” (ARTELO BIOSCIENCES LIMITED, priority 2020, published 2024)
